Columns and labels:
SARS-CoV-2 [1] = test: Antiviral activity against SARS-CoV-2 B.1 lineage isolate infected in human Calu-3 cells assessed as inhibition of viral replication at 10 uM infected with cells for 1 hr followed by compound addition and measured 24 hrs post infection by crystal violet staining based PFU assay relative to control; format: functional; settings: Severe acute respiratory syndrome coronavirus 2, B.1, Calu-3
SARS-CoV-2 [2] = test: Antiviral activity against SARS-CoV-2 B.1 lineage isolate infected in human Calu-3 cells assessed as inhibition of viral replication at 1 uM infected with cells for 1 hr followed by compound addition and measured 24 hrs post infection by crystal violet staining based PFU assay relative to control; format: functional; settings: Severe acute respiratory syndrome coronavirus 2, B.1, Calu-3
[3] = Cytotoxicity against human Calu-3 cells assessed as cell viability at 250 uM incubated for 72 hrs by methylene blue assay relative to control; format: toxicity, cell-based; settings: read-out: Activity
SARS-CoV-2 [4] = test: Antiviral activity against SARS-CoV-2 B.1 lineage isolate infected in human Calu-3 cells assessed as inhibition of viral replication infected with cells for 1 hr followed by compound addition and measured 24 hrs post infection by crystal violet staining based PFU assay; format: functional, organism-based; settings: Severe acute respiratory syndrome coronavirus 2, B.1, Calu-3
[5] = Cytotoxicity against human Calu-3 cells assessed as reduction in cell viability incubated for 72 hrs by methylene blue assay; format: toxicity, cell-based
[6] = Selectivity index, ratio of CC50 for cytotoxicity against human Calu-3 cells to EC50 for antiviral activity against SARS-CoV-2 B.1 lineage isolate infected in human Calu-3 cells; format: toxicity, cell-based; settings: read-out: Ratio CC50/EC50
SARS-CoV-2 [7] = test: Antiviral activity against SARS-CoV-2; format: functional, organism-based; settings: Severe acute respiratory syndrome coronavirus 2
SARS-CoV-2 [8] = test: Antiviral activity against SARS-CoV-2 in presence of ritonavir; format: functional, organism-based; settings: Severe acute respiratory syndrome coronavirus 2
SARS-CoV-2 [9] = test: Antiviral activity against SARS-CoV-2 B.1 lineage infected in human Calu-3 cells assessed as inhibition of viral replication; format: functional, organism-based; settings: Severe acute respiratory syndrome coronavirus 2, B.1, Calu-3
SARS-CoV-2 [10] = test: Antiviral activity against SARS-CoV-2 in presence of lopinavir; format: functional, organism-based; settings: Severe acute respiratory syndrome coronavirus 2
SARS-CoV-2 [11] = test: Antiviral activity against SARS-CoV-2 infected in human Calu-3 cells; format: functional, organism-based; settings: Severe acute respiratory syndrome coronavirus 2, Calu-3
[12] = Cytotoxicity against African green monkey Vero E6 cells assessed as reduction in cell viability by CCK8 assay; format: toxicity, cell-based, Vero C1008; settings: chlorocebus sabaeus
SARS-CoV-2 [13] = test: Antiviral activity against SARS-CoV-2 infected in human Calu-3 cells assessed as inhibition of viral replication incubated for 48 hrs by PFU assay; format: functional, organism-based; settings: Severe acute respiratory syndrome coronavirus 2, Calu-3, 48 h
SARS-CoV-2 [14] = test: Potency index, ratio of myricetin EC50 to test compound EC50 for antiviral activity against SARS-CoV-2 infected in human Calu-3 cells assessed as inhibition of viral replication; format: functional, Severe acute respiratory syndrome coronavirus 2
SARS-CoV-2 [15] = test: Potency index, ratio of baicalein EC50 to test compound EC50 for antiviral activity against SARS-CoV-2 infected in human Calu-3 cells assessed as inhibition of viral replication; format: functional, Severe acute respiratory syndrome coronavirus 2

Compound	inhibition at 10 µM (SARS-CoV-2 [1])	inhibition at 1 µM (SARS-CoV-2 [2])	viability at 72 h, 250 µM [3]	EC50 (SARS-CoV-2 [4])	CC50 at 72 h [5]	selectivity ratio [6]	also measured
O=C1/C(=C/c2ccc3c(c2)OCO3)Oc2ccccc21	44.6%	69.5%	≥ 80%	–	–	–	–
COc1ccc(/C=C2\Oc3cc(OC)ccc3C2=O)cc1	94.8%	46.5%	≥ 80%	1.5 µM	> 300 µM	> 200	–
CCC(CC)COC(=O)[C@H](C)N[P@](=O)(OC[C@H]1O[C@@](C#N)(c2ccc3c(N)ncnn23)[C@H](O)[C@@H]1O)Oc1ccccc1	–	–	–	–	–	–	EC50 (SARS-CoV-2 [7]): 2.5 µM
Cc1cccc(C)c1OCC(=O)N[C@@H](Cc1ccccc1)[C@@H](O)C[C@H](Cc1ccccc1)NC(=O)[C@H](C(C)C)N1CCCNC1=O [LOPINAVIR]	–	–	–	–	–	–	EC50 (SARS-CoV-2 [8]): 5 µM
COc1ccc(/C=C2\Oc3ccccc3C2=O)cc1 [4'-METHOXY-AURONE]	66.9%	29.2%	≥ 80%	–	–	–	–
O=C1/C(=C/c2ccccc2)Oc2ccccc21 [(Z)-AURONE]	81.2%	< 1%	≥ 80%	–	–	–	–
COCOc1cc(/C=C2\Oc3cc(OC)ccc3C2=O)ccc1OC	88.2%	34.1%	≥ 80%	2.3 µM	> 1000 µM	> 435	–
O=c1c(O)c(-c2ccc(O)c(O)c2)oc2cc(O)cc(O)c12 [QUERCETIN]	–	–	–	–	–	–	EC50 (SARS-CoV-2 [9]): 2.4 µM
COc1ccc(/C=C2\Oc3cc(OCc4ccc(F)cc4)ccc3C2=O)cc1	85.2%	14.5%	≥ 80%	2.9 µM	> 300 µM	> 104	–
CC(C)c1nc(CN(C)C(=O)N[C@H](C(=O)N[C@@H](Cc2ccccc2)C[C@H](O)[C@H](Cc2ccccc2)NC(=O)OCc2cncs2)C(C)C)cs1 [RITONAVIR]	–	–	–	–	–	–	EC50 (SARS-CoV-2 [10]): 5 µM
O=c1c(O)c(-c2cc(O)c(O)c(O)c2)oc2cc(O)cc(O)c12 [MYRICETIN]	–	–	–	–	–	–	EC50 (SARS-CoV-2 [9]): 0.9 µM
COc1ccc(/C=C2\Oc3cc(O)cc(O)c3C2=O)cc1	68.4%	–	≥ 80%	–	–	–	–
O=c1cc(-c2ccccc2)oc2cc(O)c(O)c(O)c12 [BAICALEIN]	–	–	–	–	–	–	EC50 (SARS-CoV-2 [11]): 1.2 µM; CC50 [12]: > 200 µM
COCOc1ccc2c(c1)O/C(=C\c1ccc(OC)c(OCOC)c1)C2=O	95.4%	77%	≥ 80%	0.5 µM	817 µM	1630	–
CC(C)C(=O)OC[C@H]1O[C@@H](n2cc/c(=N\O)[nH]c2=O)[C@H](O)[C@@H]1O [MOLNUPIRAVIR]	–	–	–	–	–	–	EC50 (SARS-CoV-2 [7]): 2 µM
COc1ccc(/C=C2\Oc3cc4c(cc3C2=O)OCO4)cc1	95.8%	32.5%	≥ 80%	2 µM	> 1000 µM	> 500	–
O=c1c(O)c(-c2ccc(O)cc2)oc2cc(O)cc(O)c12 [KAEMPFEROL]	–	–	–	–	–	–	EC50 (SARS-CoV-2 [9]): 3 µM
COc1cc(/C=C2\Oc3ccccc3C2=O)cc(OC)c1OC	66.4%	–	≥ 80%	5.8 µM	> 250 µM	> 43.1	–

Compound	inhibition at 10 µM (SARS-CoV-2 [1])	inhibition at 1 µM (SARS-CoV-2 [2])	viability at 72 h, 250 µM [3]	EC50 (SARS-CoV-2 [4])	CC50 at 72 h [5]	selectivity ratio [6]	also measured
O=C1/C(=C/c2ccc(Cl)cc2)Oc2ccccc21	68.8%	–	≥ 80%	–	–	–	–
COc1cccc2c1C(=O)/C(=C/c1ccccc1)O2	90.9%	< 1%	≥ 80%	–	–	–	–
COc1ccc(/C=C2\Oc3c(ccc(O)c3O)C2=O)cc1	62.2%	25.9%	≥ 80%	4.6 µM	> 300 µM	> 65.2	–
COc1cc(O)c2c(=O)c(OC)c(-c3ccc(O)cc3)oc2c1 [KUMATAKENIN]	–	–	–	–	–	–	EC50 (SARS-CoV-2 [13]): 0.3 µM
COc1ccc2c(c1)O/C(=C\c1ccccc1)C2=O	99.7%	59.1%	≥ 80%	0.49 µM	> 1000 µM	> 2000	–
COc1ccc2c(c1)O/C(=C\c1ccc(O)cc1)C2=O	88.3%	25%	≥ 80%	2.8 µM	> 300 µM	> 107	–
COCOc1cc(/C=C2\Oc3ccccc3C2=O)ccc1OC	97.6%	60.3%	≥ 80%	1 µM	> 300 µM	> 300	–
COc1cc(O)c2c(=O)c(OC)c(-c3ccc(OC)c(OC)c3)oc2c1 [RETUSIN]	–	–	–	–	–	–	EC50 (SARS-CoV-2 [13]): 0.6 µM
COCOc1cc(OCOC)c2c(c1)O/C(=C\c1ccc(OC)cc1)C2=O	95.2%	< 1%	≥ 80%	–	–	–	–
COCOc1ccc2c(c1)O/C(=C\c1ccc(OC)cc1)C2=O	98%	77.6%	≥ 80%	0.58 µM	> 1000 µM	> 1670	–
COc1ccc(/C=C2\Oc3cc(OCc4ccccc4)ccc3C2=O)cc1	91%	36.1%	≥ 80%	2.2 µM	> 300 µM	> 136	–
O=c1cc(-c2ccc(O)cc2)oc2cc(O)cc(O)c12 [APIGENIN]	–	–	–	–	–	–	EC50 (SARS-CoV-2 [9]): 5.1 µM
COCOc1ccc2c(c1)O/C(=C\c1ccc(OC)cc1OCOC)C2=O	96.2%	82.5%	≥ 80%	0.35 µM	976 µM	2440	Ratio EC50 (SARS-CoV-2 [14]): 2; Ratio EC50 (SARS-CoV-2 [15]): 3
COc1ccc(/C=C2\Oc3cc(O)ccc3C2=O)cc1	24%	–	≥ 80%	> 10 µM	> 250 µM	–	–
COCOc1ccc2c(c1OCOC)O/C(=C\c1ccc(OC)cc1)C2=O	58.2%	< 1%	≥ 80%	–	–	–	–
COc1ccc(/C=C2\Oc3cc(O)ccc3C2=O)cc1O	24.4%	70.4%	≥ 80%	5.6 µM	> 250 µM	> 44.6	–
COc1ccc(/C=C2\Oc3cc(OC(F)F)ccc3C2=O)cc1	97.1%	69.9%	≥ 80%	0.9 µM	> 300 µM	> 333	–
COCOc1cc(OC)ccc1/C=C1\Oc2ccccc2C1=O	58.3%	–	≥ 80%	8.2 µM	> 250 µM	> 30.5	–

Source: ChEMBL document CHEMBL5321246, “Aurones: A Promising Scaffold to Inhibit SARS-CoV-2 Replication” (J Nat Prod, 2023)
